Data set [1] deals with hepatoblastoma cell lines HepG2, Huh-6 and HB-214 versus hepatocytes.
Experimental: (§2) On day 0, cells were trypsinized and plated into a white walled 384-well plate containing pre-diluted known concentrations of various drugs. After 72 hours, an equal volume of Cell-Titer Glo 2.0 (G9243, Promega) was added to each well, incubated at room temperature while rocking in the dark for 15 minutes, followed by luminescence acquisition with a BioTek Synergy HT plate reader (BioTek, Winooski, VT).
Another data set concerns HB-243. The experiment in a line: Cell proliferation study, HB-243. Particulars: 72 h drug exposure, Cell-Titer Glo, average of quadruplicates; read-out: absolute IC50, HB-243. It is filed as cell-based, human. As for the experimental part:
(§1) On day 0, cells were trypsinized and plated into white walled 384-well plates. On day 1, when cells were 70% confluent, volasertib (S2235, SelleckChem, Houston, TX), SN38 (S4908, SelleckChem) or vincristine (S1241, SelleckChem) suspended in DMSO were added to plates using a Tecan D300e drug printer (Tecan Life Sciences, Switzerland), ensuring less than 1% DMSO. […] Absolute IC50 values were calculated using GraphPad Prism (GraphPad, San Diego, CA). Synergy values were calculated using CalcuSyn (Biosoft, Cambridge, UK) software.

The subject of data set [2] is HB-279. The data set can be described thus: Cell proliferation study, HB-279. It is filed as cell-based, human. Particulars: 72 h drug exposure, Cell-Titer Glo, average of quadruplicates; read-out: absolute IC50, HB-279. As to the method:
as §1

The next data set relates to HB-282. The experiment in a line: Cell proliferation study, HB-282. The format is cell-based, human. The following applies: 72 h drug exposure, Cell-Titer Glo, average of quadruplicates; read-out: absolute IC50, HB-282. As to the method: as §1
The next data set deals with HB-284. The data set can be described thus: Cell proliferation study, HB-284. The following applies: 72 h drug exposure, Cell-Titer Glo, average of quadruplicates; read-out: absolute IC50, HB-284. The format is cell-based, human. As to the method: as §1
A further data set relates to HB-295. The experiment in a line: Cell proliferation study, HB-295. The following applies: 72 h drug exposure, Cell-Titer Glo, average of quadruplicates; read-out: absolute IC50, HB-295. It is filed as cell-based, human. As for the experimental part:
as §1

Data set [3] has as its system HB-279. The experiment in a line: Cell cycle analysis by flow cytometry (PI staining), HB-279. The format is cell-based, human. As to the method:
After a 72-hour drug treatment, cells were collected and fixed in ice cold 70% ethanol. After rehydration, cells were stained using the Guava Cell Cycle Reagent for Flow Cytometer (4500-0220, MilliporeSigma, Germany) according to the product protocol. Cells were analyzed for propidium iodide using the Guava EasyCyte 8HT (MilliporeSigma). Flow data was analyzed using CytoBank software (Cytobank, Santa Clara, CA).
Background: A flow cytometer gives signals particle by particle.

For data set [4] the following is noted: cited from earlier work.
A further data set has as its system normal human hepatocytes. The experiment in a line: 60-agent chemical screen, cell viability (Cell-Titer Glo), hepatocytes.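 Further: cells were plated onto pre-diluted drug concentrations in 384-well plates, and viability was read after 72 h as CellTiter-Glo 2.0 luminescence.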 It is filed as cell-based. The following applies: Hepatocyte, 60-agent screen, 72 hours, a value of 10,000 indicates that the drug did not inhibit viability, read-out: absolute IC50, Hepatocytes.
A further data set concerns HepG2. The data set can be described thus: 60-agent chemical screen, cell viability (Cell-Titer Glo), HepG2.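 Further: luminescence read-out in 384-well plates, with cells plated directly onto drug dilutions of known concentration.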 It is filed as cell-based. Particulars: Homo sapiens, 60-agent screen, 72 hours, a value of 10,000 indicates that the drug did not inhibit viability, read-out: absolute IC50, HepG2.
A further data set deals with Huh-6. The data set can be described thus: 60-agent chemical screen, cell viability (Cell-Titer Glo), Huh-6. It is filed as cell-based. The following applies: Homo sapiens, 60-agent screen, 72 hours, a value of 10,000 indicates that the drug did not inhibit viability, read-out: absolute IC50, Huh-6.
Another data set relates to HB-214. The experiment in a line: 60-agent chemical screen, cell viability (Cell-Titer Glo), HB-214.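 Further: viability read as luminescence once Cell-Titer Glo 2.0 reagent was added to drug-treated cells in 384-well plates.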 It is filed as cell-based. Particulars: Homo sapiens; 60-agent screen, 72 hours; a value of 10,000 indicates that the drug did not inhibit viability; read-out: absolute IC50, HB-214.
The conditions of data set [5]: cited from earlier work. The source holds these as a separate data set.
The subject of data set [6] is hepatoblastoma cell lines HepG2, Huh-6 and HB-214 versus hepatocytes. The data set can be described thus: 60-agent chemical screen, hepatoblastoma cell lines taken together / versus hepatocytes. Particulars: 60-agent screen.
Experimental: as §2
In data set [7] the test system is six hepatoblastoma cell cultures. The experiment in a line: Cell proliferation study, six hepatoblastoma cell cultures together. It is filed as cell-based, human. Particulars: 72hr drug exposure, Supplementary Figure 4. As to the method:
as §1

Counter-ions that a name gives are not always drawn. Like-named read-outs stand apart in the source and are kept apart here. Where only a bound is given, the exact number is not on record here.

Experimental for normal human hepatocytes: as §2

Take `Cc1ccc(S(=O)(=O)/C=C/C#N)cc1` [BAY-11-7082]: the “Ratio normal/cancer: average ratio of the IC50 in hepatocytes to the IC50 in hepatoblastoma cell lines” value (shortened to “Ratio normal/cancer: average ratio”) in data set [1] amounted to 1.

With `Clc1ccc(N/N=C(\c2ccccc2)c2ccccn2)nc1` [JIB-04], the “Ratio normal/cancer: average ratio” value in [1] was found to be 4.

In the case of `CS(=O)(=O)c1cccc(CNc2nc(Nc3ccc4c(c3)CCC(=O)N4)ncc2C(F)(F)F)c1` [PF 573228], the “Ratio normal/cancer: average ratio” value in data set [1] is reported as 1.

`CCc1c2c(nc3ccc(O)cc13)-c1cc3c(c(=O)n1C2)COC(=O)[C@]3(O)CC` [SN38]: the IC50 (usually the concentration needed to halve the response being measured) was 0.16 µM in the data set on HB-243; 0.2 µM in the data set on HB-279 [2]; 0.026 µM with HB-282; 0.21 µM in the data set on HB-284; 0.5 µM in the data set with HB-295. Also, the “Percent of cells in S phase” value in the data set with HB-279 [3] (HB-279, 72 hour treatment, 150 nM volasertib, 3 nM SN38, N=3, DMSO 16.1) is given as 17.7%. The “Percent of cells in G2/M” value with HB-279 [3] (HB-279, 72 hour treatment, 150 nM volasertib, 3 nM SN38, N=3, DMSO 26.8) is 34.3%. Moreover, in the data set with HB-279 [3] (HB-279, 72 hour treatment, 150 nM volasertib, 3 nM SN38, N=3, DMSO 56.5), the “Percent of cells in G1” value is 47.6%. In the data set with HB-279 [3] (clinically achievable concentrations, 72 hours), the “cell cycle arrest as compared to vehicle control” value is reported as “modest G2/M phase arrest”. Further, in data set [4] (SN38, pediatric study), the “AUC0-∞” value was 0.214 µM·h. The Cmax (commonly the maximum level reached in the sampled fluid or tissue) in data set [4] (SN38 from clinical trials) is 120 nM.

For `Cc1nc(Nc2ncc(C(=O)Nc3c(C)cccc3Cl)s2)cc(N2CCN(CCO)CC2)n1` [dasatinib], the IC50 is above 10 µM in the data set with normal human hepatocytes, 5.02 µM with HepG2, 2.62 µM with Huh-6 and above 10 µM in the data set on HB-214.

Consider `Nc1ccccc1NC(=O)c1ccc(CNC(=O)OCc2cccnc2)cc1` [entinostat], for which the IC50 in the data set with normal human hepatocytes is 0.217 µM; in the data set on HepG2 it was 0.392 µM; in the data set on Huh-6, above 10 µM; in the data set on HB-214 it was 1.49 µM.

Turning to `C=C[C@@]1(C)CC(=O)[C@]2(O)[C@@]3(C)[C@@H](O)CCC(C)(C)[C@@H]3[C@H](O)[C@H](OC(C)=O)[C@@]2(C)O1` [forskolin], the IC50 with normal human hepatocytes, in the data set on HepG2, in the data set with Huh-6 and with HB-214 was above 10 µM each time.

As for `Nc1nc(O)c2ncn(COC(CO)CO)c2n1` [ganciclovir], the IC50 in the data set on normal human hepatocytes, with HepG2, in the data set with Huh-6 and in the data set on HB-214 was above 10 µM throughout.

Regarding `CCc1c2c(nc3ccc(OC(=O)N4CCC(N5CCCCC5)CC4)cc13)-c1cc3c(c(=O)n1C2)COC(=O)[C@]3(O)CC` [irinotecan], the side effects result in [5] (irinotecan) is “diarrhea and neutropenia”.

Turning to `CN(C)C(=N)N=C(N)N` [metformin HCL], the IC50 in the data set with normal human hepatocytes, with HepG2, with Huh-6 and with HB-214 was above 10 µM each time.

For the molecule `Cc1[nH]c2ccccc2c1CCNCc1ccc(/C=C/C(=O)NO)cc1` [panobinostat], the IC50 in the data set on normal human hepatocytes worked out at 0.039 µM; in the data set on HepG2, 0.08 µM; with Huh-6, 1.14 µM; with HB-214, 0.25 µM.

Consider `Nc1nc2[nH]cc(CCc3ccc(C(=O)N[C@@H](CCC(=O)O)C(=O)O)cc3)c2c(=O)[nH]1` [pemetrexed], for which the IC50 in the data set with normal human hepatocytes, in the data set on HepG2, in the data set on Huh-6 and in the data set on HB-214 was above 10 µM each time.

With `N#CC[C@H](C1CCCC1)n1cc(-c2ncnc3[nH]ccc23)cn1` [ruxolitinib], the IC50 in the data set on normal human hepatocytes, in the data set with HepG2, in the data set with Huh-6 and with HB-214 was above 10 µM throughout.

With `CO[C@H]1C[C@@H]2CC[C@@H](C)[C@@](O)(O2)C(=O)C(=O)N2CCCC[C@H]2C(=O)O[C@H]([C@H](C)C[C@@H]2CC[C@@H](O)[C@H](OC)C2)CC(=O)[C@H](C)/C=C(\C)[C@@H](O)[C@@H](OC)C(=O)[C@H](C)C[C@H](C)/C=C/C=C/C=C/1C` [sirolimus], the IC50 in the data set with normal human hepatocytes, in the data set on HepG2, in the data set with Huh-6 and in the data set on HB-214 was above 10 µM in each case.

As for `C/C=C(/C)C(=O)O[C@H]1C(C)=C2[C@H]([C@@H]1OC(=O)CCCCCCC)[C@@](C)(OC(C)=O)C[C@H](OC(=O)CCC)[C@@]1(O)[C@H]2OC(=O)[C@@]1(C)O` [thapsigargin], the IC50 in the data set on normal human hepatocytes stood at 0.519 µM; in the data set on HepG2, 0.021 µM; in the data set on Huh-6 it was 0.28 µM; in the data set with HB-214, 0.16 µM. In addition, the known toxicity entry in data set [5] (in vivo) is “significant renal toxicity”.

Turning to `Cc1cc(Nc2cc(N3CCN(C)CC3)nc(Sc3ccc(NC(=O)C4CC4)cc3)n2)[nH]n1` [tozasertib], the IC50 in the data set with normal human hepatocytes was above 10 µM; with HepG2 it was above 10 µM; in the data set on Huh-6, 3.26 µM; in the data set on HB-214, 1.48 µM.

For `CC(=O)Nc1cccc(-n2c(=O)n(C3CC3)c(=O)c3c(Nc4ccc(I)cc4F)n(C)c(=O)c(C)c32)c1` [trametinib], the IC50 is above 10 µM in the data set on normal human hepatocytes, above 10 µM in the data set with HepG2, above 10 µM in the data set on Huh-6 and 0.21 µM in the data set with HB-214. Further, the “effectiveness across the three hepatoblastoma cell lines” value in data set [6] is reported as “only effective in one cell line out of three”.

`CN1CCc2c(c3ccccc3n2Cc2ccc(C(=O)NO)cc2)C1` [tubastatin A]: the IC50 in the data set with normal human hepatocytes, in the data set on HepG2, with Huh-6 and in the data set on HB-214 was above 10 µM each time.

For `CC[C@]1(O)C[C@H]2CN(CCc3c([nH]c4ccccc34)[C@@](C(=O)OC)(c3cc4c(cc3OC)N(C=O)[C@H]3[C@@](O)(C(=O)OC)[C@H](OC(C)=O)[C@]5(CC)C=CCN6CC[C@]43[C@@H]65)C2)C1` [vincristine], the “sensitivity of hepatoblastoma cell lines to vincristine” value in [7] was “Several cell lines were highly resistant”. Moreover, in data set [4] (published Cmax of vincristine), the Cmax was 90 nM.

With `O=c1ncccn1[C@@H]1O[C@H](CO)[C@@H](O)[C@H]1O` [zebularine], the IC50 with normal human hepatocytes, in the data set on HepG2, in the data set on Huh-6 and in the data set on HB-214 was above 10 µM each time.

Values taken from PMC6849653, “Volasertib preclinical activity in high-risk hepatoblastoma” (Oncotarget, 2019).
